Source: patent US20260007601A1, “IONIZABLE CATIONIC LIPID COMPOUND AND COMPOSITION FOR DELIVERING NUCLEIC ACID AND USE THEREOF” (BEIJING YOUCAREKECHUANG PHARMACEUTICAL TECHNOLOGY CO., LTD., priority 2023, published 2026)
Values joined by “and” are separate entries in the source; they are usually repeats but may differ in a detail not shown here. Equal entries are not always repeated.

Legend:
female BALB/C mice = assay: Mouse in vivo imaging of Fluc-mRNA LNP formulations; set-up: average radiation intensity (mRNA expression): unit not given here; settings: for average radiation intensity (mRNA expression): 10 μg Fluc-mRNA LNP intramuscularly
Procedure, shortened: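 Female BALB/C mice (4–6 weeks, 17–19 g) received LNP carrying 10 μg Fluc-mRNA intramuscularly. Imaging substrate given intraperitoneally at 6 h, 24 h, 48 h and 7 d; after 5 min free movement, average radiance read by IVIS Spectrum imaging.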

293T cells = assay: Cell survival rate assay (CCK-8); type: cell-based
Procedure, shortened: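 293T cells seeded at 10,000 per well and grown overnight, then exposed for 24 h to LNPs (cationic/neutral/structured/PEG lipids 49:10:39.5:1.5) carrying 1.5 μg Fluc-mRNA, or Lipofectamine 3000. Viability read by CCK-8, 1 h incubation, absorbance at 450 nm.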

## CCCCCCCCCCCOC(=O)CCCCCN(CCCCCCCC(=O)OC(CCCCCCCC)CCCCCCCC)CCN(C)CCO [YK-201, heptadecan-9-yl-8-(2-((2-hydroxyethyl)(methylamino))ethyl)(6-oxo-6-((undecanyloxy)hexyl)amino)octanoate]
Female BALB/C mice; 6 h
  average radiation intensity, times that of ALC-0315: 3.39 times
  average radiation intensity, times that of HHMA: 4.47 times
  average radiation intensity, times that of SM-102: 4.21 times
  average radiation intensity, times that of compound 21: 4.76 times
  average radiation intensity, times that of compound 23: 4.81 times
  mRNA expression level, times that of YK-204: 81.10 times
  mRNA expression level, times that of YK-223: 276.05 times
  average radiation intensity (mRNA expression): 2858500
Female BALB/C mice; 6 hours
  expression level, times that of YK-215: 56.53 times
  expression level, times that of YK-217: 116.27 times
Female BALB/C mice; 24 h
  average radiation intensity, times that of ALC-0315: 11.11 times
  average radiation intensity, times that of HHMA: 18.47 times
  average radiation intensity, times that of SM-102: 17.49 times
  average radiation intensity, times that of compound 21: 18.76 times
  average radiation intensity, times that of compound 23: 18.27 times
  mRNA expression level, times that of YK-204: 387.32 times
  mRNA expression level, times that of YK-223: 1134.20 times
  average radiation intensity (mRNA expression): 2025680
Female BALB/C mice; 24 hours
  expression level, times that of YK-215: 297.24 times
  expression level, times that of YK-217: 764.41 times
Female BALB/C mice; 48 h
  average radiation intensity, times that of ALC-0315: 19.16 times
  average radiation intensity, times that of HHMA: 24.82 times
  average radiation intensity, times that of SM-102: 23.91 times
  average radiation intensity, times that of compound 21: 24.34 times
  average radiation intensity, times that of compound 23: 22.78 times
  mRNA expression level, times that of YK-204: 299.49 times
  mRNA expression level, times that of YK-223: 1077.82 times
  average radiation intensity (mRNA expression): 730760
Female BALB/C mice; 48 hours
  expression level, times that of YK-215: 200.76 times
  expression level, times that of YK-217: 713.63 times
Female BALB/C mice; 7 d
  average radiation intensity, times that of ALC-0315: 4.58 times
  average radiation intensity, times that of HHMA: 5.68 times
  average radiation intensity, times that of SM-102: 5.11 times
  average radiation intensity, times that of compound 21: 4.94 times
  average radiation intensity, times that of compound 23: 5.17 times
  expression level, times that of YK-215: 29.56 times
  expression level, times that of YK-217: 57.65 times
  mRNA expression level, times that of YK-204: 39.99 times
  mRNA expression level, times that of YK-223: 68.53 times
  average radiation intensity (mRNA expression): 30151
Female BALB/C mice; time point not stated
  mRNA expression in mice can reach, times that of YK-204: 380 times
293T cells; LNP containing 1.5 μg Fluc-mRNA, 24 hours, CCK-8
  Cell survival rate: 75.93%
293T cells; difference of rates
  cell survival rate higher (cytotoxicity reduced) compared with YK-221: 55% and 54.98%
  cell survival rate higher (toxicity lower) than that of YK-204: 30% and 33.36%
  cell survival rate higher (toxicity lower) than that of YK-225: 32.52%
  cell survival rate higher than that of ALC-0315: 25.97%
  cell survival rate higher than that of HHMA: 10.37%
  cell survival rate higher than that of Lipofectamine 3000: 52.88%
  cell survival rate higher than that of SM-102: 7.38%
  cell survival rate higher than that of YK-203: 40.37%
  cell survival rate higher than that of YK-205: 17.01%
  cell survival rate higher than that of YK-208: 29.25%
  cell survival rate higher than that of YK-210: 37.55%
  cell survival rate higher than that of YK-211: 23.63%
  cell survival rate higher than that of YK-212: 40.67%
  cell survival rate higher than that of YK-213: 34.49%
  cell survival rate higher than that of YK-214: 50.35% and 50%
  cell survival rate higher than that of YK-215: 31.34%
  cell survival rate higher than that of YK-216: 30.13%
  cell survival rate higher than that of YK-217: 33.66%
  cell survival rate higher than that of YK-219: 17.32%
  cell survival rate higher than that of YK-220: 16.94%
  cell survival rate higher than that of YK-222: 42.18%
  cell survival rate higher than that of YK-223: 39.29%
  cell survival rate higher than that of YK-224: 52.46%
  cell survival rate higher than that of YK-226: 48.03%
  cell survival rate higher than that of compound 21: 6.91%
  cell survival rate higher than that of compound 23: 5.83%
